The values below come from patent publication US5583155A, “6-amino-1,2-benzopyrones useful for treatment of viral diseases” (Octamer, Inc., priority 1994, dated 1996).

Experiment [1] relates to ADPRT. To be noted: Proc. Nat. Acad. Sci. (USA), 84:1107 (1987); cited from earlier work.
Experiment [2] deals with ADPRT. The experiment in a line: Binding to ADPRT. Conditions: 6-nitroso oxidation product.
For another experiment, the system named is CMV. To be noted: cited from earlier work.
In a further experiment the test system is oris DNA of HSV-1. As to the kind of experiment: Nitrocellulose filter binding to HSV-1 oris DNA. Conditions: input oris DNA 8,000/sample. The method, then:
This example illustrates HSV DNA binding at the site of replication (oris) initiation at ADPRT.
The 230 bp XbaI-HindIII oris DNA of HSV-1 was isolated from plasmid pKC4 and radioactively labeled with [32P]dCTP by fill-in reaction with the Klenow form of E. coli DNA polymerase. Labeled DNA fragments were purified as previously described in J. Virol., 63:2773 (1989).
Nitrocellulose filters (Schleicher and Schuell, BA 85, […] pore size, 27 mm diameter) were presoaked for 60 minutes in binding buffer (250 mM Tris-Cl, pH 8.0, 100 mM MgCl2, 1000 mM NaCl, 0.6 mM DTT, 0.1 mg/ml BSA, 0.1 mM PMSF and 0.1 mM TLCK). 5 ul of [32P] oris DNA was added to 210 ul of cold binding buffer and incubated for 1 minute. 2 ul of either ADPRT (200 ng) or HSV-1 infected Vero cell extract (Vero(F), 2 ug) was then added to the DNA solution and incubated for 10 minutes at 25° C. Samples were transferred to ice, followed by filtration through the nitrocellulose filters. The filters were then washed four times with cold wash buffer containing 25 mM Tris-Cl, pH 8.0, 10 mM MgCl2, 0.5 mM DTT, 100 mM NaCl, 5% DMSO. The filters were dried and the amount of radioactive material bound to the filters was determined by scintillation spectrophotometry.

Values joined by “and” are separate entries in the source; they are usually repeats but may differ in a detail not shown here. Equal entries are not always repeated.

`O=c1ccc2ccccc2o1` [1,2-benzopyrone]: the “inhibition of ADPRT” value in the experiment with ADPRT [1] is “inhibitory ligand”.
Turning to `O=Nc1ccc2oc(=O)ccc2c1` [6-NBP, 6-nitroso-1,2-benzopyrone], the “binding to zinc-fingers of ADPRT” value with ADPRT [2] was “binds specifically and with high affinity”.
As to `Nc1nc2c(ncn2COCCO)c(=O)[nH]1` [acyclovir], the “CMV sensitivity” value in the experiment with CMV is on record as “CMV is resistant to acyclovir”.
ADPRT: the “% Specific Bound” value in the experiment with oris DNA of HSV-1 was 78.6% and ~80%. Besides, in the experiment on oris DNA of HSV-1 (average of duplicate samples), the “CPM Bound to Filter” value was 6384 CPM.
